Experimental data taken from patent US20220040109A1, “KIDNEY-TARGETING DRUG DELIVERY CARRIER” (KYOTO PHARMACEUTICAL UNIVERSITY, priority 2017, published 2022).

Test: Toxicity in mouse (plasma creatinine, BUN, kidney histology)
Assay type: in vivo, ddY mice
Settings: compound 1a 1 mg/kg intravenous once per day for 5 days
Description: Six days after the first intravenous injection, under isoflurane anesthesia, the blood was collected from the vena cava to sacrifice the mice. Plasma creatinine and urea nitrogen (BUN) levels were respectively measured using a creatinine measurement kit (LabAssay, Wako) and a BUN measurement kit (DIUR-100, BioAssay System). Thereafter, kidneys were excised, fixed with 4% paraformaldehyde, and embedded in paraffin blocks. Then, 5-μm-thick sections were prepared. The kidney sections were stained with hematoxylin and eosin, and renal injury was evaluated using a light microscopy (Biozero, KEYENCE). In addition, when HgCl2 was administered as a positive control, plasma creatinine, BUN level and kidney sections were also evaluated by the above-mentioned methods.

SMILES: [Cl][Hg][Cl] [HgCl2]
- histological sections of renal tissues (hematoxylin and eosin) (HgCl2 positive control, FIG. 10C): infiltration and necrosis of inflammatory cells and damaged cells were observed
- plasma concentration of creatinine (HgCl2 subcutaneous positive control, FIG. 10A): significantly increased
- plasma concentration of BUN (HgCl2 subcutaneous positive control, FIG. 10B): significantly increased
